This note sets out measurements from patent US11524956B2, “Alkyne substituted quinazoline compound and methods of use” (Newgen Therapeutics, Inc., priority 2011, dated 2022).

Like-named read-outs stand apart in the source and are kept apart here. Where only a bound is given, the exact number is not on record here.

Test [1] deals with BT474 cells. Description: Cell proliferation inhibition assay for BT474 (CCK-8). The test is classed as cell-based. The settings on record: Homo sapiens, BT-474; 72h. As to the method: Human breast cancer BT474 cells was cultured in low glucose DMEM (Life Technologies 12320-032) containing 10% fetal bovine serum (FBS) at 37° C. in a humidified 10% CO2, 90% air incubator. Cells were harvested using trypsin EDTA, counted using a haemocytometer, and plated 10000 cell/well in a 96-well clear tissue culture plate. The cells were incubated for 24 h at 37° C. to allow adherence. A serials of concentrations of each compound (ranging from 30 um to 0.16 nM, 5-fold dilution) in 96-well plate, and incubated for 72h. Each concentration was tested in triplicate wells. During the cell proliferation assay, BT474 cells were cultured in low-glucose DMEM containing 5% FBS, 50 ug/ml gentamicin, and 0.3% v/v DMSO. The culture medium was removed via aspiration, and the cell viability was detected by using CCK-8 cell proliferation kit. The IC50 value measured for each compound in Examples 1 to 7 is <100 nM.

Test [2] has as its system H1975 xenograft. Description: In vivo efficacy in NCI-H1975 xenograft mouse model. Also on record: species or system Balb/c nude mice. Particulars: KU113 10 and 20 mg/kg po qd; afatinib 20 mg/kg; erlotinib 100 mg/kg. As to the method:
H1975 cells were purchased from ATCC were cultured in RPMI1640±10% FBS-1% P/S antibiotics. Balb/c nude mice, female, 6-8 week, 18+2 g were purchased from. Shanghai Laboratory Animal Co. Ltd. The purchased mice were adapted to the environment for 7 days before use, and were housed at 22-25° C. with humidity 40-70%, and light cycle with fluorescent light for 12-hour light (8:00-20:00) 12-hour dark.
Formulation: Erlotinib, afatinib (BIBW2992), and KU113 were dissolved in 2% DMA and 98% (40% HP-β-CD deionized water).
The cancer cells (H1975) were amplified and implanted into the nude mice (right flank) with 5.0×10^6 cells in PBS and 1:1 with matrigel in a total volume of 0.1 ml/mouse. […]
The mice were monitored twice daily for appearance and behavior, and for signs of morbidity and/or mortality. The tumor volume was measured twice a week, and the body weight was measured immediately before measuring the tumor volume throughout the whole study. […]
Tumor sizes were measured twice weekly in two dimensions using a caliper, and the volume was expressed in mm^3 using the formula: V=½×a×b^2 where a and b are the long and short diameters of the tumor, respectively. […]

The target in test [3] is EGFR kinase (Homo sapiens (Human), UniProt P00533). Description: Kinase assay for EGFR (TR-FRET, LanthaScreen). Type of test: biochemical. The settings on record: read-out: Kinase inhibition IC50 (nM) EGFR. As to the method: The extent to which the compounds of the present invention modulate EGFR kinase activity can be determined using time-resolved Fret (TR-FRET) assay (LanthaScreen® kinase activity assay, from InVitrogen). The assay employs EGFR kinase (PV3872, Invitrogen), Tb-Py20 antibody (PV3552, InVitrogen) and fluorescein-poly GT (PV3610, InVitrogen).
Chain of EGFR kinase (P00533 668-1210): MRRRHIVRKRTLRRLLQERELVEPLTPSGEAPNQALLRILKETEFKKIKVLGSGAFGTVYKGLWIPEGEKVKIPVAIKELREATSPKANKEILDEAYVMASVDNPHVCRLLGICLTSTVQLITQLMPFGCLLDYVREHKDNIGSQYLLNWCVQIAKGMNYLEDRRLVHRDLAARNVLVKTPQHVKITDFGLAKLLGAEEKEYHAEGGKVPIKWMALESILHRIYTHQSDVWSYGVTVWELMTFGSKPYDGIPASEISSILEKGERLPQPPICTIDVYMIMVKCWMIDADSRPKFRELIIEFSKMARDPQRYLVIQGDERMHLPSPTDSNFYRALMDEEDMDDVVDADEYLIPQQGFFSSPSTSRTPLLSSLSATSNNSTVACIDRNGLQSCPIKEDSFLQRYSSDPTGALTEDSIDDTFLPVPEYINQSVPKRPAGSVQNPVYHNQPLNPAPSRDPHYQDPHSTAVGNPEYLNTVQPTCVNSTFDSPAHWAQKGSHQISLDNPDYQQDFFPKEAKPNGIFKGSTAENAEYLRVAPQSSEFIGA
The assay is performed in a Black 384-well plate (available from Corning). EGFR kinase (is diluted in TR-FRET Dilution Buffer (PV3189, InVitrogen) at concentration of 0.4 ug/ml as stock solution, and then 2-fold serial diluted. Addition of 1 mM ATP initiated the reaction, and the reaction is incubated for […] at room temperature. 10 μL of the Tb-antibody (from InVitrogen)+EDTA (from InVitrogen) solution prepared was added to each well of the assay plate and mix briefly, and incubated for 30 min. The signal is monitored by using M5 microplate reader (Ex=332 nm, Em=488 nm and 518 nm). Each compound is tested in duplicate wells. EGFR without compound is used as control. Staurosporine (available from Sigma) is used as positive control compound. Inhibition was calculated as percentage of the EGFR activity (without compound).

Test [4] concerns NCI-H1975 cells. Description: Anti-proliferation assay of NCI-H1975 cells (CCK-8). Particulars: Homo sapiens, NCI-H1975, 72 h, 3 days. Type of test: cell-based. How it is done:
The anti-proliferative assays were performed in triplicates. 3000 cell/well of N1975 cells were seeded in 96-well plate (medium: RPMI 1640, 5% FBS. 2 mM L-Glutamine). After 24 h, removal the medium in the plate was followed by the addition of compound of serial dilution in medium to the wells. After 3 days, the cells were treated with CCK-8 kit and incubated for additional 4 hours at 37° C. The plate was read at 450 nm. The log of the fractional growth inhibition was plotted against the log of the drug concentration, and the IC50 values were interpolated from the resulting linear regression curve fit. The IC50 value measured for Compound NT113 is <1000 nM.

For test [5], the target named is ErbB2 kinase protein (Homo sapiens (Human), UniProt P04626). Description: Kinase assay for ErbB2. Type of test: biochemical. The settings on record: read-out: Kinase inhibition IC50 (nM) ErbB2. As to the method: The assay is performed similarly to the kinase assay for […] as described above, except ErbB2 kinase protein is used instead of EGFR kinase protein.
Chain of ErbB2 kinase protein (P04626 23-1255): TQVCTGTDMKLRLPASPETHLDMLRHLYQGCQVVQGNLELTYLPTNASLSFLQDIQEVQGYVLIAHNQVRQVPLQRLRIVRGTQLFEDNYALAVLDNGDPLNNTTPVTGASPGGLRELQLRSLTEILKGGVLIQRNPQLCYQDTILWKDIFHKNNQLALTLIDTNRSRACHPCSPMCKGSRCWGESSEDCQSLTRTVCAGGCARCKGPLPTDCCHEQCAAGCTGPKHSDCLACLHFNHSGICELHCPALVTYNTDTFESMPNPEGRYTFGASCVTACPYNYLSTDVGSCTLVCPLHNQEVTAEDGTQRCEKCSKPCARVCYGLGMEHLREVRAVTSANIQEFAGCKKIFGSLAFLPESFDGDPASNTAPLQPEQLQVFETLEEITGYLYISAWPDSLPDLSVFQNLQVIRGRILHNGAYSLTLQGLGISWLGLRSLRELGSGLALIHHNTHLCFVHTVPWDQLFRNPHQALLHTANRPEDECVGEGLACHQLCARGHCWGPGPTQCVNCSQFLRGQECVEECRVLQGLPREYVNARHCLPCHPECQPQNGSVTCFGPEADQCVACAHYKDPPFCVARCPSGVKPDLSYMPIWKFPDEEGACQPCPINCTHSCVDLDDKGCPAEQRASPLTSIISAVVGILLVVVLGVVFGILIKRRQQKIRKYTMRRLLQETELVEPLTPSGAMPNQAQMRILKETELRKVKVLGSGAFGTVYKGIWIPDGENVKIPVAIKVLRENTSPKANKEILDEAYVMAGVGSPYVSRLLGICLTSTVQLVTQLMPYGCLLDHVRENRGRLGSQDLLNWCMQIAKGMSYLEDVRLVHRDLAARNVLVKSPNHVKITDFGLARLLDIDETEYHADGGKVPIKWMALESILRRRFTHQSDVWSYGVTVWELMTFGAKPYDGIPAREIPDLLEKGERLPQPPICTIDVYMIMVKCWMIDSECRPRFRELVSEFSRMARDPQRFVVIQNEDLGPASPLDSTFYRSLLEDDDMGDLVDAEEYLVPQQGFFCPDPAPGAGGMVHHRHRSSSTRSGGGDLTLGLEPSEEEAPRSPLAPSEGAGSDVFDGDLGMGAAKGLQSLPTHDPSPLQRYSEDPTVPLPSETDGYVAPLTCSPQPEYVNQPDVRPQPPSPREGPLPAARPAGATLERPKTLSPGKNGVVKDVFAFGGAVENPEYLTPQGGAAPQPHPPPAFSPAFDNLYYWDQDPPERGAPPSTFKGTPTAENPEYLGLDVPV

On to `CN(C)C/C=C/C(=O)Nc1cc2c(Nc3ccc(F)c(Cl)c3)ncnc2cc1C#C[C@@H]1[C@H]2COC[C@@H]12` [Example 4, (E)-N-(4-(3-chloro-4-fluorophenylamino)-7-(2-((1R,5S,6s)-3-oxa-bicyclo[3.1.0]hexan-6-yl)ethynyl)quinazolin-6-yl)-4-(dimethylamino)but-2-enamide], for which the IC50 was under 100 nM in test [1]; under 100 nM in test [3]; 100 to 1000 nM in test [4] (read-out: Cell Proliferation Inhibition IC50 (nM) NCI-H1975); under 1000 nM in test [4] (read-out: IC50 NCI-H1975 anti-proliferation); under 100 nM in test [5]. The “anticancer effect on H1975 xenograft versus comparators” value in test [2] is “significantly more effective than erlotinib; and comparable with afatinib”.
